Patent US8999664B2, “Method of improving salmon meat color” (JX Nippon Oil & Energy Corporation, priority 2006, dated 2015)

How the values were obtained:
[1] = Carotenoid content in fish flesh of silver salmon by HPLC; format: in vivo, Oncorhynchus kisutch; conditions: for Ratio to astaxanthin: silver salmon fish flesh; for Ratio to astaxanthin / Content in fish flesh: 6 months; for Content in fish flesh / concentration at 6 months: silver salmon, average of 10 fish; for concentration at 6 months: silver salmon (Oncorhynchus kisutch), fish flesh, oral
Description: In the examples, the quantification of the carotenoid colorant was performed using high performance liquid chromatography (HPLC). Two columns of Wakosil-II 5 SIL-100 φ4.6×250 mm (produced by Wako Pure Chemical Industries, Ltd.) were connected to each other. An n-hexane:tetrahydrofuran:methanol (40:20:1) mixed solution was used as a mobile phase. A constant room temperature and a flow rate of 1.0 ml/min were used. The detection was performed at a wavelength of 470 nm. The feed or fish flesh was milled, and then the colorant was extracted with a tetrahydrofuran:methanol (20:1) mixed solution. The colorant was appropriately diluted with the mobile phase and analyzed by HPLC. 300 silver salmons (Oncorhynchus kisutch) each weighing about 200 g were cultivated as a test division of being fed with the above-described fermented product, and another 300 silver salmons each weighing about 200 g were cultivated as a test division of being fed with the above-described synthetic product. The salmons were fed in satiation in a marine fish pen for 6 months. After the 6 months of cultivating, 10 fish of each test division were weighed. […] The fish were immediately killed by cutting medulla and frozen for preservation. After being thawed, the fish flesh was milled by a coffee mill, and a part thereof was put into a polyethylene bag to measure the color tone thereof by a spectrometer CM-508i (Minolta). […] From a part of the milled fish flesh, the carotenoid colorant was extracted, and analyzed in terms of the content of each carotenoid compound by HPLC.

[2] = Carotenoid content in fish flesh of king salmon by HPLC; format: in vivo, Oncorhynchus tshawytscha; conditions: for Ratio to astaxanthin: king salmon fish flesh; for Ratio to astaxanthin / Content in fish flesh: 3 months; for Content in fish flesh / concentration at 3 months: king salmon, flesh frozen 1 month, average of 15 fish; for concentration at 3 months: king salmon (Oncorhynchus tshawytscha), oral
Description: In the examples, the quantification of the carotenoid colorant was performed using high performance liquid chromatography (HPLC). Two columns of Wakosil-II 5 SIL-100 φ4.6×250 mm (produced by Wako Pure Chemical Industries, Ltd.) were connected to each other. An n-hexane:tetrahydrofuran:methanol (40:20:1) mixed solution was used as a mobile phase. A constant room temperature and a flow rate of 1.0 ml/min were used. The detection was performed at a wavelength of 470 nm. The feed or fish flesh was milled, and then the colorant was extracted with a tetrahydrofuran:methanol (20:1) mixed solution. The colorant was appropriately diluted with the mobile phase and analyzed by HPLC. 100 king salmons (Oncorhynchus tshawytscha) each weighing about 200 g were cultivated as a test division of being fed with the above-described fermented product, and another 100 king salmons each weighing about 200 g were cultivated as a test division of being fed with the above-described synthetic product. The salmons were fed in satiation in a marine fish pen for 3 months. After the 3 months of cultivating, 15 fish of each test division were sampled and weighed. […] The fish were immediately killed by cutting medulla. […] After the measurement, the fish flesh was frozen for preservation for 1 month. After being thawed, the fish flesh of the fish of each test division was analyzed in terms of the content of each carotenoid compound.

[3] = Carotenoid content in fish flesh of Atlantic salmon by HPLC; format: in vivo, Salmo salar; conditions: for Ratio to astaxanthin: Atlantic salmon fish flesh; for Ratio to astaxanthin / Content in fish flesh: 12 months; for Content in fish flesh / concentration at 12 months: Atlantic salmon, flesh frozen 1 month, average of 20 fish; for concentration at 12 months: Atlantic salmon (Salmo salar), oral
Description: In the examples, the quantification of the carotenoid colorant was performed using high performance liquid chromatography (HPLC). Two columns of Wakosil-II 5 SIL-100 φ4.6×250 mm (produced by Wako Pure Chemical Industries, Ltd.) were connected to each other. An n-hexane:tetrahydrofuran:methanol (40:20:1) mixed solution was used as a mobile phase. A constant room temperature and a flow rate of 1.0 ml/min were used. The detection was performed at a wavelength of 470 nm. The feed or fish flesh was milled, and then the colorant was extracted with a tetrahydrofuran:methanol (20:1) mixed solution. The colorant was appropriately diluted with the mobile phase and analyzed by HPLC. 400 Atlantic salmons (Salmo salar) each weighing about 300 g were cultivated as a test division of being fed with the above-described fermented product, and another 400 Atlantic salmons each weighing about 300 g were cultivated as a test division of being fed with the above-described synthetic product. The salmons were fed in satiation in a marine fish pen for 12 months. After the 12 months of cultivating, 20 fish of each test division were landed and weighed. […] The fish were immediately killed by cutting medulla, and the fish flesh was measured in terms of the color tone by a spectrometer. […] After the measurement, the fish flesh was frozen for preservation for 1 month. After being thawed, the fish flesh of the 20 fish of each test division was analyzed in terms of the content of each carotenoid compound.

[4] = Carotenoid content in fish flesh of rainbow trout by HPLC; format: in vivo, Oncorhynchus mykiss; conditions: for Ratio to astaxanthin: rainbow trout fish flesh; for Ratio to astaxanthin / Content in fish flesh: 3 months; for Content in fish flesh / concentration at 3 months: rainbow trout, average of 12 fish; for concentration at 3 months: rainbow trout (Oncorhynchus mykiss), fish flesh, oral
Description: In the examples, the quantification of the carotenoid colorant was performed using high performance liquid chromatography (HPLC). Two columns of Wakosil-II 5 SIL-100 φ4.6×250 mm (produced by Wako Pure Chemical Industries, Ltd.) were connected to each other. An n-hexane:tetrahydrofuran:methanol (40:20:1) mixed solution was used as a mobile phase. A constant room temperature and a flow rate of 1.0 ml/min were used. The detection was performed at a wavelength of 470 nm. The feed or fish flesh was milled, and then the colorant was extracted with a tetrahydrofuran:methanol (20:1) mixed solution. The colorant was appropriately diluted with the mobile phase and analyzed by HPLC. 50 rainbow trouts (Oncorhynchus mykiss) each weighing about 100 g were cultivated in a water tank as a test division of being fed with the above-described fermented product, and another 50 rainbow trouts each weighing about 100 g were cultivated in a water tank as a test division of being fed with the above-described synthetic product. The trouts of each test division were fed in satiation in fresh water for 3 months. After the 3 months of cultivating, 12 fish of each test division were weighed. […] The fish were immediately killed by cutting medulla. […] After the measurement, the fish flesh was frozen for preservation. After being thawed, the fish flesh of the 12 fish of each test division was analyzed in terms of the content of each carotenoid compound.

Row | Compound | Ratio to astaxanthin ([1]; Fermented product division) | Content in fish flesh ([1]; Fermented product division) | Content in fish flesh ([1]; Synthetic product division) | Ratio to astaxanthin ([2]; Fermented product division) | Content in fish flesh ([2]; Fermented product division) | Content in fish flesh ([2]; Synthetic product division) | Ratio to astaxanthin ([3]; Fermented product division) | Content in fish flesh ([3]; Fermented product division) | Content in fish flesh ([3]; Synthetic product division) | Ratio to astaxanthin ([4]; Fermented product division) | Content in fish flesh ([4]; Fermented product division) | Content in fish flesh ([4]; Synthetic product division) | concentration at 6 months ([1]; 43.2 mg/kg feed, Fermented product division) | concentration at 6 months ([1]; 44.3 mg/kg feed, Synthetic product division) | concentration at 3 months ([2]; 70.3 mg/kg feed, Synthetic product division) | concentration at 3 months ([2]; 72.7 mg/kg feed, Fermented product division) | concentration at 12 months ([3]; 79.8 mg/kg feed, Fermented product division) | concentration at 12 months ([3]; 81.6 mg/kg feed, Synthetic product division) | concentration at 3 months ([4]; 63.2 mg/kg feed, Fermented product division) | concentration at 3 months ([4]; 64.6 mg/kg feed, Synthetic product division)
1 | CC1=C(/C=C/C(C)=C/C=C/C(C)=C/C=C/C=C(C)/C=C/C=C(C)/C=C/C2=C(C)C(=O)[C@@H](O)CC2(C)C)C(C)(C)C[C@H](O)C1 [Adonixanthin] | 23.1% | 2.4 mg/kg | 0.02 or less mg/kg | 6.5% | 0.3 mg/kg | 0.02 or less mg/kg | 4.9% | 0.2 mg/kg | 0.02 or less mg/kg | 2.9% | 0.1 mg/kg | 0.02 or less mg/kg | – | – | – | – | – | – | – | –
2 | CC1=C(/C=C/C(C)=C/C=C/C(C)=C/C=C/C=C(C)/C=C/C=C(C)/C=C/C2=C(C)C(=O)[C@@H](O)CC2(C)C)C(C)(C)C[C@H](O)C1=O [Astaxanthin] | 100% | – | – | 100% | – | – | 100% | – | – | 100% | – | – | 10400 ng/g | 12700 ng/g | 7200 ng/g | 4600 ng/g | 4100 ng/g | 6200 ng/g | 3400 ng/g | 6300 ng/g
3 | CC1=C(/C=C/C(C)=C/C=C/C(C)=C/C=C/C=C(C)/C=C/C=C(C)/C=C/C2=C(C)C(=O)[C@@H](O)CC2(C)C)C(C)(C)CCC1=O [Phoenicoxanthin] | 11.5% | 1.2 mg/kg | 0.02 or less mg/kg | 45.7% | 2.1 mg/kg | 0.02 or less mg/kg | 41.5% | 1.7 mg/kg | 0.02 or less mg/kg | 67.6% | 2.3 mg/kg | 0.02 or less mg/kg | – | – | – | – | – | – | – | –

Results, then the compound that gave them:

Row | Ratio to astaxanthin ([1]; Fermented product division) | Content in fish flesh ([1]; Fermented product division) | Content in fish flesh ([1]; Synthetic product division) | Ratio to astaxanthin ([2]; Fermented product division) | Content in fish flesh ([2]; Fermented product division) | Content in fish flesh ([2]; Synthetic product division) | Ratio to astaxanthin ([3]; Fermented product division) | Content in fish flesh ([3]; Fermented product division) | Content in fish flesh ([3]; Synthetic product division) | Ratio to astaxanthin ([4]; Fermented product division) | Content in fish flesh ([4]; Fermented product division) | Content in fish flesh ([4]; Synthetic product division) | concentration at 6 months ([1]; 43.2 mg/kg feed, Fermented product division) | concentration at 6 months ([1]; 44.3 mg/kg feed, Synthetic product division) | concentration at 3 months ([2]; 70.3 mg/kg feed, Synthetic product division) | concentration at 3 months ([2]; 72.7 mg/kg feed, Fermented product division) | concentration at 12 months ([3]; 79.8 mg/kg feed, Fermented product division) | concentration at 12 months ([3]; 81.6 mg/kg feed, Synthetic product division) | concentration at 3 months ([4]; 63.2 mg/kg feed, Fermented product division) | concentration at 3 months ([4]; 64.6 mg/kg feed, Synthetic product division) | Compound
4 | 0.2 or less % | 0.02 or less mg/kg | 0.02 or less mg/kg | 0.5 or less % | 0.02 or less mg/kg | 0.02 or less mg/kg | 0.5 or less % | 0.02 or less mg/kg | 0.02 or less mg/kg | 0.6 or less % | 0.02 or less mg/kg | 0.02 or less mg/kg | – | – | – | – | – | – | – | – | CC1=C(/C=C/C(C)=C/C=C/C(C)=C/C=C/C=C(C)/C=C/C=C(C)/C=C/C2=C(C)C(=O)[C@@H](O)CC2(C)C)C(C)(C)CCC1 [3-hydroxyequinenone]
5 | 1.0% | 0.1 mg/kg | 0.02 or less mg/kg | 6.5% | 0.3 mg/kg | 0.02 or less mg/kg | 9.8% | 0.4 mg/kg | 0.02 or less mg/kg | 11.8% | 0.4 mg/kg | 0.02 or less mg/kg | – | – | – | – | – | – | – | – | CC1=C(/C=C/C(C)=C/C=C/C(C)=C/C=C/C=C(C)/C=C/C=C(C)/C=C/C2=C(C)C(=O)CCC2(C)C)C(C)(C)CCC1=O [Canthaxanthin]
6 | 0.2 or less % | 0.02 or less mg/kg | 0.02 or less mg/kg | 0.5 or less % | 0.02 or less mg/kg | 0.02 or less mg/kg | 0.5 or less % | 0.02 or less mg/kg | 0.02 or less mg/kg | 0.6 or less % | 0.02 or less mg/kg | 0.02 or less mg/kg | – | – | – | – | – | – | – | – | CC1=C(/C=C/C(C)=C/C=C/C(C)=C/C=C/C=C(C)/C=C/C=C(C)/C=C/C2=C(C)C(=O)CCC2(C)C)C(C)(C)CCC1 [Equinenone]
